Experimental findings from ChEMBL document CHEMBL1201862, “PubChem BioAssay data set” (2004) are described below.

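These data come from cells grown in 96-well plates and exposed to compound for 48 hours at five concentrations. At the GI50, growth is halved.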 The source made the active and inactive calls. Cut-off read from the data, not from the text of the source: active = GI50 up to about 1.1 µM and inactive = higher.

Test in all cases: inhibition of tumour cell growth, NCI panel, 48 h
Experiment [1] relates to LOX IMVI.
Experiment [2] has as its system HT-29.
For experiment [3], the system named is Hs-578T.
The test system of experiment [4] is HOP-92.
Experiment [5] relates to UACC-257.
For experiment [6], the system named is CCRF-CEM.
Experiment [7] has as its system HCC 2998.
For experiment [8], the system named is MDA-MB-231.
In experiment [9] the test system is SK-MEL-5.
For experiment [10], the system named is HL-60.
Experiment [11] relates to SK-MEL-2.
Experiment [12] relates to A498.
Experiment [13] has as its system DU-145.
Experiment [14] concerns NCI-H226.
Experiment [15] relates to SW-620.
The subject of experiment [16] is HCT-116.
Experiment [17] concerns COLO 205.
The subject of experiment [18] is SF-268.
For experiment [19], the system named is SK-MEL-28.
The subject of experiment [20] is UO-31.

As for `CC(=O)OC12COC1CC(O)C1(C)C(=O)C(O)C3=C(C)C(O)CC(O)(C(OC(=O)c4ccccc4)C21)C3(C)C` (stereo not given), the GI50 in [1] was 1.82 µM (inactive); in [2], 1.31 µM (inactive); in experiment [3] it was 0.778 µM (active); in experiment [4], > 100 µM (inactive); in experiment [5], 5 µM (inactive); in experiment [6] it was 3.8 µM (inactive). Further, the GI50 in experiment [7] is 4.08 µM (inactive); in [8], 7.91 µM (inactive); in experiment [9], 3.44 µM (inactive); in experiment [10] it was 2.52 µM (inactive); in experiment [11], 1.55 µM (inactive); in [12], > 100 µM (inactive). Further, the GI50 in [13] was 8.43 µM (inactive); in experiment [14], 6.01 µM (inactive); in [15], 0.989 µM (active); in experiment [16], 1.67 µM (inactive); in experiment [17] it was 1.14 µM (inactive); in experiment [18] it was 3.41 µM (inactive). Also, the GI50 is 3.38 µM (inactive) in experiment [19] and 67.1 µM (inactive) in [20].

For `O=C(O)c1ccc2c(c1)Cc1cc([N+](=O)[O-])ccc1-2`, the GI50 in [1] is > 100 µM (inactive); in experiment [2], > 100 µM (inactive); in experiment [3], 76.9 µM (inactive); in [4], 30.5 µM (inactive); in experiment [5] it was 44.1 µM (inactive); in experiment [6] it was 21.6 µM (inactive). Moreover, the GI50 is > 100 µM (inactive) in experiment [7]; > 100 µM (inactive) in experiment [8]; > 100 µM (inactive) in [9]; > 100 µM (inactive) in experiment [10]; > 100 µM (inactive) in [11]; 44 µM (inactive) in experiment [12]. Besides, the GI50 in experiment [13] was > 100 µM (inactive); in experiment [14], 52.1 µM (inactive); in experiment [15] it was > 100 µM (inactive); in experiment [16], > 100 µM (inactive); in [17] it was > 100 µM (inactive); in experiment [18], > 100 µM (inactive). Moreover, the GI50 in experiment [19] was > 100 µM (inactive); in experiment [20], 93.1 µM (inactive).

Consider `O=C(CCCC1Cc2ccccc2C1=O)c1ccccc1` (stereo not given), for which the GI50 in experiment [1] was 34.8 µM (inactive); in [2], 42.2 µM (inactive); in [3], > 100 µM (inactive); in experiment [4], 62.8 µM (inactive); in experiment [5] it was 46.2 µM (inactive); in experiment [6], 66.5 µM (inactive). Besides, the GI50 in [7] is > 100 µM (inactive); in experiment [8], > 100 µM (inactive); in experiment [9] it was 35.6 µM (inactive); in [10], 32.4 µM (inactive); in [11] it was > 100 µM (inactive); in [12], 52.5 µM (inactive). The GI50 in [13] was > 100 µM (inactive); in [14], 70.1 µM (inactive); in experiment [15], > 100 µM (inactive); in experiment [16], 63.8 µM (inactive); in experiment [17], 93.8 µM (inactive); in [18], > 100 µM (inactive). The GI50 in [19] is > 100 µM (inactive); in experiment [20], 47.1 µM (inactive).

Take `COc1ccc2cc1Oc1ccc(cc1)CC1c3cc(OC)c(cc3CCN1C)Oc1c(OC)c(OC)cc3c1C(C2)N(C)CC3` (stereo not given): the GI50 in experiment [1] is 9.98 µM (inactive); in [2], 8.79 µM (inactive); in experiment [3] it was 10.8 µM (inactive); in [4], 16.3 µM (inactive); in experiment [5] it was 6.75 µM (inactive); in experiment [6], 17.7 µM (inactive). The GI50 was 9.62 µM (inactive) in experiment [7]; 10 µM (inactive) in experiment [8]; 6.79 µM (inactive) in experiment [9]; 4.71 µM (inactive) in [10]; 12.8 µM (inactive) in [11]; 10.6 µM (inactive) in experiment [12]. Further, the GI50 is 12.6 µM (inactive) in experiment [13]; 16.9 µM (inactive) in [14]; 26.2 µM (inactive) in [15]; 19.1 µM (inactive) in experiment [16]; 2.49 µM (inactive) in [17]; 12.9 µM (inactive) in [18]. The GI50 in experiment [19] is 14.5 µM (inactive); in [20], 9.42 µM (inactive).

For the compound `O=[N+]([O-])C(/C(Cl)=C(\Cl)Br)=C(/Cl)SCc1ccccc1`, the GI50 was 1.86 µM (inactive) in experiment [1]; 2.12 µM (inactive) in experiment [2]; 5.11 µM (inactive) in experiment [3]; 2.31 µM (inactive) in [4]; 6.21 µM (inactive) in experiment [5]; 0.507 µM (active) in experiment [6]. In addition, the GI50 in [7] is 11.2 µM (inactive); in experiment [8], 2.94 µM (inactive); in [9] it was 2.9 µM (inactive); in [10], 0.336 µM (active); in experiment [11], 3.8 µM (inactive); in experiment [12], 8.04 µM (inactive). The GI50 was 13 µM (inactive) in [13]; 14.4 µM (inactive) in experiment [14]; 2.03 µM (inactive) in experiment [15]; 2.48 µM (inactive) in experiment [16]; 1.98 µM (inactive) in [17]; 2.85 µM (inactive) in experiment [18]. For the same compound, the GI50 in [19] was 2.31 µM (inactive); in experiment [20], 2.52 µM (inactive).

Regarding `O=C(Nc1ccc(Cl)cc1)C(=O)C1=C(O)c2ccccc2OC1`, the GI50 in experiment [1], in [2], in [3], in experiment [4], in [5] and in [6] was > 100 µM (inactive) throughout. Besides, the GI50 in experiment [7], in [8], in experiment [9], in experiment [10], in experiment [11] and in [12] was > 100 µM (inactive) throughout. Also, the GI50 in experiment [13], in [14], in experiment [15], in experiment [16], in experiment [17] and in [18] was > 100 µM (inactive) each time. The GI50 in experiment [19] and in [20] was > 100 µM (inactive) in each case.

As to `O=C(c1ccccc1)N1CCN(C(=S)N(C(=O)c2ccccc2)c2ccccc2)C1=S`, the GI50 was 1.9 µM (inactive) in experiment [1]; 5.42 µM (inactive) in experiment [2]; 3.1 µM (inactive) in [3]; 6.37 µM (inactive) in [4]; 8.49 µM (inactive) in [5]; 2.56 µM (inactive) in experiment [6]. For the same compound, the GI50 in experiment [7] was 6.5 µM (inactive); in experiment [8], 10.3 µM (inactive); in [9] it was 13.5 µM (inactive); in [10] it was 2.25 µM (inactive); in experiment [11], 7.41 µM (inactive); in experiment [12], 4.02 µM (inactive). Besides, the GI50 is 3.01 µM (inactive) in [13]; 10.7 µM (inactive) in experiment [14]; 3.31 µM (inactive) in [15]; 3.4 µM (inactive) in experiment [16]; 3.28 µM (inactive) in [17]; 3.45 µM (inactive) in experiment [18]. Moreover, the GI50 was 3.27 µM (inactive) in [19] and 2.56 µM (inactive) in experiment [20].

As for `CCN(CC)COC(=S)S`, the GI50 in experiment [1] is 41.8 µM (inactive); in experiment [2], 39 µM (inactive); in [3], > 100 µM (inactive); in [4] it was > 100 µM (inactive); in experiment [5] it was 27.5 µM (inactive); in experiment [6], 0.0162 µM (active). Besides, the GI50 in [7] is > 49.9 µM (inactive); in experiment [8], 35.4 µM (inactive); in experiment [9], 21.6 µM (inactive); in experiment [10], < 0.01 µM (active); in experiment [11], 1.82 µM (inactive); in experiment [12] it was > 100 µM (inactive). Moreover, the GI50 in experiment [13] is 54.6 µM (inactive); in [14] it was > 100 µM (inactive); in [15], 24.2 µM (inactive); in experiment [16], 40.4 µM (inactive); in experiment [17], 78 µM (inactive); in [18], > 78 µM (inactive). For the same compound, the GI50 in [19] was > 100 µM (inactive); in experiment [20] it was 62.5 µM (inactive).

In the case of `CN(C)c1ccc2cc3ccc(N(C)C)cc3nc2c1` [ACRIDINE ORANGE], the GI50 in experiment [1] is 1.31 µM (inactive); in [2], 0.403 µM (active); in [3], 2.5 µM (inactive); in experiment [4], 4.32 µM (inactive); in [5], 3.98 µM (inactive); in [6] it was 0.678 µM (active). Moreover, the GI50 in [7] was 0.56 µM (active); in experiment [8], 1.19 µM (inactive); in experiment [9], 1.99 µM (inactive); in [10] it was 0.331 µM (active); in [11] it was 6.18 µM (inactive); in experiment [12], 4.08 µM (inactive). Also, the GI50 is 1.32 µM (inactive) in [13]; 5.09 µM (inactive) in experiment [14]; 0.49 µM (active) in experiment [15]; 0.316 µM (active) in [16]; 0.975 µM (active) in experiment [17]; 1.52 µM (inactive) in experiment [18]. Moreover, the GI50 in [19] was 3.37 µM (inactive); in experiment [20] it was 0.871 µM (active).
